# According to patent EP1222921B1, “Pharmaceutical compositions of tizoxanide and/or nitazoxanide” (Romark Laboratories, L.C., priority 1997, dated 1998):
# “And” between values parts separate entries of the source, which are not always exact repeats. Equal values may be shown once.
# What was measured:
# [1] = test system: immature (4-week/old) F. gigantica; test: Experimentally infected rabbits, immature flukes; assay type: in vivo, Fasciola gigantica
# Method: Nitazoxanide was tested against immature and mature Fasciola gigantica in experimentally infected rabbits. Fasciola gigantica encysted metacercariae (EMC) were collected on cellophane sheet after 28-35 days from infection of L. calludi snails by Fasciola gigantica miracidium using the technique described by […] snails were exposed daily to artificial light, for 30 minutes, in clean dechlorinated tap water. The resulting encysted […]) were preserved at 4°C in a refrigerator for 5 to 8 days under the surface of water until they were used to infect experimental animals. Forty (40) Boscat rabbits, weighting 1.5 to 2 kg each, were included in the study and allocated to two treatment groups of 20 animals. Animals from Group 1 were orally infected with 35-40 encysted […] wrapped in a leaf of lettuce and pushed on the root of the tongue of the animals. The mouths of the animals were held closed by hand until the encysted metacercariae were swallowed. These Group 1 animals were used to test the efficacy of nitazoxanide against immature stages (4-5 weeks old) of Fasciola […]. Ten animals from Group 1 received 35 mg of nitazoxanide, morning and evening, for 7 consecutive days 4 weeks after their infection at the immature stage of the parasite cycle. The ten remaining animals in Group 1 were kept as untreated controls. All animals were fed with dry ration until the end of the experiment. Seven days after administration of the last dose of nitazoxanide, all rabbits from each group were sacrificed. The surface of the liver was examined for the presence of necrotic migrating furrows especially at the immature stage of the parasite cycle. These necrotic areas were examined using two surgical needles in order to extract the juvenile migrating flukes according to the technique described by El-Bahy. The livers were sliced in small pieces especially around the migrating furrows and macerated under a microscope in order to extract the existing flukes. The abdominal cavity and the visceral surfaces were washed with warm water. The water was then collected, sieved and examined for identification of juvenile flukes. All the collected parasites as well as parts of them were counted in both treated and untreated animal in both Groups 1 and 2. […] The efficacy of nitazoxanide was calculated by using the formula indicated below: % efficacy(a - b)/(a)x 100 [formula] Where: • a = the number of flukes recovered from feces in the control animals • b = the number of flukes recovered from feces in the treated animals.
# [2] = test system: M. intracellular ATCC 13950; test: MIC by standard agar dilution; assay type: cell-based, Mycobacterium intracellular; conditions: Mycobacterium, ATCC13950, 504 h, Middlebrook 7H11 agar, 3 weeks
# C. parvum oocysts = test: Intact C. parvum oocyst assay (Example II), immunofluorescence; assay type: cell-based, Cryptosporidium parvum
# Method: Nitazoxanide was dissolved in sterile dimethylsulfoxide (DMSO) and tested against intact C. parvum oocysts infected cell monolayers at concentrations of 100 µg/ml, 10 µg/ml/l µg/ml and 0.1 µg/ml. A second trail was performed which tested nitazoxanide at the additional concentrations of 20, 2, 0.2 and 0.02 µg/ml. These concentrations were achieved by serial dilutions with complete DMEM medium to yield a final DMSO concentration of 0.5%. The medium control also contacted 0.5% DMSO.
# The experiment used a cell culture of MDBKF5D2 Cells grown in 7 mm chambers, and as Cryptosporidium parvum: GCH1 oocysts, 5 X 10^4 per well, and was conducted to compare paromomycin (positive control) against nitazoxanide (experimental drug). Materials included Immune Anti-Cryptosporidium parvum Sporozoite Rabbit Serum (0.1%) and Fluorescein-Conjugated Goat Anti-Rabbit Antibody (1%).
# 5 x 104 C. parvum oocysts per well were incubated in nitazoxanide (100, 20, 10, 2, 1, 0.2, 0.1 and 0.02 µg/ml) at 37°C (8% CO2) on confluent MDBKF5D2 cell monolayers. The level of infection in each well was determined and analyzed by an immunofluorescence assay at 24 to 48 hours. Percent Inhibition was calculated by subtracting the mean parasite count/10 field in the drug test wells from the mean parasite count/10 fields in the medium control (no drug), dividing by the medium control count, and then multiplying by 100. (Medium control count - Drug test count)/(Medium control count)x 100 [formula]
# [3] = test system: mature (13-week/old) Schistosoma hematobium; test: Experimentally infected mice, worm count; assay type: in vivo
# Method: (§1) Nitazoxanide was tested against Schistosoma mansoni and Schistosoma hematobium in experimentally infected mice. Forty (40) white mice, weighing 30 to 50 grams were allocated to two treatment groups of 20 animal per group. The first group was infected with 300-500 Schistosoma mansoni free active cercariae suspended in 0.25 ml of distilled water and administered to each mouse by intraperitoneal injection. The second group was infected in the same manner but with Schistosoma hemotobium cercariae. These two groups were then kept for a total of 70 days in the laboratory. Seventy days after infection of the animals, ten mice from each group were treated with nitazoxanide as a 1.3 mg oral dose administered, morning and evening, for 7 consecutive days. Seven days after the end of treatment tall mice were sacrificed and the worms were extracted from the liver of each animal by perfusion using tepid water (37°C). The extracted schistosomes were counted for all treatment and control animals. The efficacy of nitazoxanide was calculated busing the formula indicated below: % efficacy(a - b)/(a)x 100 [formula] Where: • a = the number of schistosomes recovered from feces in the control animals • b = the number of schistosomes recovered from feces in the treated animals
# [4] = test system: mature (13-week/old) Schistosoma mansoni; test: Experimentally infected mice, worm count; assay type: in vivo
# Method: as §1
# MDBKF5D2 cell monolayers = test: Toxicity testing assay (Example III), MTS/PMS; assay type: cell-based; conditions: cattle, 48 h
# Method: 200µl of medium containing nitazoxanide solution at the pre-mentioned concentrations and the proper controls were introduced into two wells of a 96 well plate containing confluent MDBKFD2 cell monolayers and two wells without monolayers. […] The plate was returned to the incubator in the dark to develop for 2 hours. At 2 hours, 100 µl of each supernatant was transferred to a new microtiter plate and read in the ELISA reader at 490 nm. Results were recorded and analyzed. […] (OD medium - OD drug x 100)/(OD medium) [formula] […]
# [5] = mean of 10 rabbits, 70 mg/day for 7 consecutive days
# [6] = 10 mice, 2.6 mg/day for 7 consecutive days
# [7] = individual mice No. 1-10, 1.3 mg oral morning and evening for 7 consecutive days, 70 days after infection
# [8] = total of 10 mice, 2.6 mg/day for 7 consecutive days
smiles,measurement,setting,value
"CC(=O)Oc1ccccc1C(=O)Nc1ncc([N+](=O)[O-])s1 [Nitazoxanide, 2-(acetolyloxy)-N-(5-nitro 2-thiazoly) benzamide]",overall efficacy,[1]; 70 mg/day dose for 7 consecutive days,moderately effective
same,No. of flukes extracted from liver of Treated Rabbits,"[1]; individual rabbits No. 1-10, 35 mg morning and evening for 7 consecutive days, 4 weeks after infection",3 (5×) and 4 (4×) and 2
same,Efficacy %,"[1]; individual rabbits No. 1-10 versus untreated control, 35 mg morning and evening for 7 consecutive days",50% (4×) and 40% (3×) and 42% (2×) and 60%
same,"Efficacy %, Mean (means percentage of reduction)",[1]; [5],46.77%
same,"No. of flukes extracted from liver of Treated Rabbits, Mean",[1]; [5],3.3
same,"percentage of reduction, range","[1]; range over 10 rabbits, 70 mg/day for 7 consecutive days",40-60%
same,MIC,[2],2 µg/mL
same,inhibition at 0.1 µg/mL,"C. parvum oocysts; Cryptosporidium parvum, Trial 1: 24 hrs, 0.1µg/ml, read-out: Percent Inhibition",51.8%
same,inhibition at 1 µg/mL,"C. parvum oocysts; Cryptosporidium parvum, Trial 1: 24 hrs, 1µg/ml, read-out: Percent Inhibition",77.2%
same,inhibition at 10 µg/mL,"C. parvum oocysts; Cryptosporidium parvum, Trial 1: 24 hrs, 10µg/ml, read-out: Percent Inhibition",94.4%
same,inhibition at 0.02 µg/mL,"C. parvum oocysts; Cryptosporidium parvum, Trial 2: 48 hrs, 0.02µg/ml, read-out: Percent Inhibition",53.3%
same,inhibition at 0.2 µg/mL,"C. parvum oocysts; Cryptosporidium parvum, Trial 2: 48 hrs, 0.2µg/ml, read-out: Percent Inhibition",54.3%
same,inhibition at 2 µg/mL,"C. parvum oocysts; Cryptosporidium parvum, Trial 2: 48 hrs, 2µg/ml, read-out: Percent Inhibition",94.9%
same,inhibition at 20 µg/mL,"C. parvum oocysts; Cryptosporidium parvum, Trial 2: 48 hrs, 20µg/ml, read-out: Percent Inhibition",96.9%
same,Mean (+ SD) Parasite Count/10 Fields,"C. parvum oocysts; Trial 1: 24 hrs, 0.1µg/ml",474.5(±29.5)
same,Mean (+ SD) Parasite Count/10 Fields,"C. parvum oocysts; Trial 1: 24 hrs, 1µg/ml",224.5(±28.5)
same,Mean (+ SD) Parasite Count/10 Fields,"C. parvum oocysts; Trial 1: 24 hrs, 10µg/ml",55.5(±13.5)
same,Mean (+ SD) Parasite Count/10 Fields,"C. parvum oocysts; Trial 2: 48 hrs, 0.02µg/ml",1041(+191.46)
same,Mean (+ SD) Parasite Count/10 Fields,"C. parvum oocysts; Trial 2: 48 hrs, 0.2µg/ml",1020(+158.48)
same,Mean (+ SD) Parasite Count/10 Fields,"C. parvum oocysts; Trial 2: 48 hrs, 2µg/ml",113.75(+21.36)
same,Mean (+ SD) Parasite Count/10 Fields,"C. parvum oocysts; Trial 2: 48 hrs, 20µg/ml",68.75(+13.77)
same,"No. of flukes removed from liver of Treated Mice, Mean/Mouse",[3]; [6],2.4
same,No. of flukes removed from liver of Treated Mice,[3]; [7],2 (5×) and 0.0 and 3 (2×) and 4 (2×)
same,"No. of flukes removed from liver of Treated Mice, Total",[3]; [8],24
same,Efficacy (worm reduction),"[3]; versus control animals, 2.6 mg/day for 7 consecutive days",82.85%
same,"No. of flukes removed from liver of Treated Mice, Mean/Mouse",[4]; [6],9.9
same,No. of flukes removed from liver of Treated Mice,[4]; [7],12 and 8 and 7 and 10 (3×) and 9 (2×) and 11 and 13
same,"No. of flukes removed from liver of Treated Mice, Total",[4]; [8],99
same,Efficacy (worm reduction),"[4]; versus control mice, 2.6 mg/day for 7 consecutive days",59.91%
same,%Tox - Percent toxicity to cells by the drug,MDBKF5D2 cell monolayers; 0.01 µg/ml,10.12%
same,Tox/OD,MDBKF5D2 cell monolayers; 0.01 µg/ml,1.617
same,%Tox - Percent toxicity to cells by the drug,MDBKF5D2 cell monolayers; 0.1 µg/ml,≤0%
same,Tox/OD,MDBKF5D2 cell monolayers; 0.1 µg/ml,1.878
same,%Tox - Percent toxicity to cells by the drug,MDBKF5D2 cell monolayers; 1 µg/ml,10.09%
same,Tox/OD,MDBKF5D2 cell monolayers; 1 µg/ml,1.618
same,%Tox - Percent toxicity to cells by the drug,MDBKF5D2 cell monolayers; 10 µg/ml,77.07%
same,Tox/OD,MDBKF5D2 cell monolayers; 10 µg/ml,.413
